Source: patent US10214544B2, “Imidazopyridazine and imidazothiadiazole compounds” (Universite de Montreal, priority 2015, dated 2019)

These molecules were tested against PAR4 (Homo sapiens (Human), UniProt Q96RI0) (assay: FLIPR assay in PAR4-expressing HEK293 cells (PAR4 antagonist activity)). Settings: inhibition of H-Ala-Phe(4-F)-Pro-Gly-Trp-Leu-Val-Lys-Asn-Gly-NH2-induced intracellular calcium mobilization.
Type: cell-based
Description: The FLIPR assay is an exemplary in vitro assay for measuring the activity of the PAR4 antagonists of the present invention. In this assay, intracellular calcium mobilization is induced in PAR4 expressing cells by a PAR4 agonist and calcium mobilization is monitored. See, e.g., Example A.
HEK293 cells stably expressing PAR4 were generated by a standard method of transfection of human PAR4 (F2R23) cDNA expression vector and selected based on PAR4 protein expression or mRNA expression. […] These cells also express endogenous PAR1 and can elicit calcium signal upon stimulation with PAR1 agonist peptide. Therefore, the same cells were also used to determine selectivity against PAR1 and agonist activity for both receptors. Cells from HEK293 PAR4 Clone 1.2A (BMS Arctic ID 383940) were propagated and used for calcium mobilization studies.
FLIPR-based calcium mobilization assay in HEK293 cells was used to measure PAR4 antagonism, agonism, and selectivity against PAR1. The activity of the PAR4 antagonists of the present invention were tested in PAR4 expressing cells by monitoring H-Ala-Phe(4-F)-[…]NH2-induced intracellular calcium mobilization. Counter screens for agonist activity and PAR1 antagonist activity were also performed. Briefly, PAR1/PAR4-expressing HEK293 cells were grown in DMEM (Life Technology, Grand Island, N.Y.) containing 10% heat-inactivated FBS, 1% Penicillin-Streptomycin, 10 μg/mL blasticidin, and 100 μg/mL Zeocin at 37° C. with 5% CO2. Cells were plated overnight prior to the experiment in a black 384-well Purecoat Amine clear bottom plate (Becton Dickinson Biosciences, San Jose, Calif.) at 10,000 cells/well in 30 μL growth medium and incubated in a humidified chamber at 37° C. with 5% CO2 overnight. Prior to compound addition, the cell medium was replaced with […] of 1× calcium and magnesium-containing Hank's Balanced Saline Solution (HBSS) (with 20 mM HEPES) and 1:1000 diluted fluorescent calcium indicator (Codex Biosolutions, Gaithersburg, Md.). After a 30 minute incubation period at 37° C. and a further 30 minute incubation and equilibration period at room temperature, 20 μL test compound (diluted in 1× HBSS buffer) was added at various concentrations at 0.17% dimethyl sulfoxide (DMSO) final concentration. Changes in fluorescence intensity were measured using a Functional Drug Screening System (FDSS, Hamamatsu, Japan) to determine agonist activities. The cells were then incubated for 30 minutes at room temperature followed by addition of 20 μL of agonist peptide for antagonist activity measurement. […] Compound potency was derived from 11-point concentration-response curves.
The following Table sets out results obtained employing various compounds of the invention tested in the FLIPR assay. As indicated above, the FLIPR assay, an in vitro assay, measures the PAR4 antagonist activity of compounds tested as described in Example A.

Chain of PAR4 (Q96RI0 18-385): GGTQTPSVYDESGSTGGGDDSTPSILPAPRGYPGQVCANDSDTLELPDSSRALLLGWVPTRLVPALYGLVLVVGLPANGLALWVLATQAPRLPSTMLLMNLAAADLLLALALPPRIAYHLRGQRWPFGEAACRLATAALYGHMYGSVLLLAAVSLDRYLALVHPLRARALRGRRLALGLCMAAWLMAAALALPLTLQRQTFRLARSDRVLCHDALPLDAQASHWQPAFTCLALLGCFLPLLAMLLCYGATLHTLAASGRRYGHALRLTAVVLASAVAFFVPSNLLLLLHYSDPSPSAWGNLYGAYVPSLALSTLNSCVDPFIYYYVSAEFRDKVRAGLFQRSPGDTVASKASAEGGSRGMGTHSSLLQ

Point of comparison: `COc1cc(OCc2cccc(N(C)C(=O)c3ccc(C)cc3)c2)c2cc(-c3cn4nc(OC)sc4n3)oc2c1` [Example 89], EC50 3.5 nM. Against it:
- COc1cc(OCc2cccc3c2CCN3C(=O)c2cccc(F)c2)c2cc(-c3cn4nc(OC)sc4n3)oc2c1 [Example 121] — 40-fold higher, 140 nM
- COc1cc(OCc2cccc(NC(=O)c3c(F)cccc3C(F)(F)F)c2)c2cc(-c3cn4nc(OC)sc4n3)oc2c1 [Example 147] — 2.2-fold lower, 1.6 nM
- COc1cc(OCc2cccc(N(C)C(=O)c3cccc(F)c3)c2)c2cc(-c3cn4nc(OC)sc4n3)oc2c1 [Example 85] — 1.7-fold higher, 6.1 nM
- COc1cc(OCc2cccc(NC(=O)C(C)(C)Oc3ccccc3)c2)c2cc(-c3cn4nc(OC)sc4n3)oc2c1 [Example 40] — 2.5-fold lower, 1.4 nM
- COc1cc(OCc2cccc(NC(=O)c3cc(C(F)(F)F)ccc3F)c2)c2cc(-c3cn4nc(OC)sc4n3)oc2c1 [Example 140] — 2.3-fold lower, 1.5 nM
- COc1cc(OCc2cccc(NC(=O)c3ccc(F)cc3C(F)(F)F)c2)c2cc(-c3cn4nc(OC)sc4n3)oc2c1 [Example 141] — 1.8-fold lower, 1.9 nM
- COc1cc(OCc2cccc(NC(=O)c3ccco3)c2)c2cc(-c3cn4nc(OC)sc4n3)oc2c1 [Example 134] — within 1.5-fold, 5 nM
- COc1cc(OCc2cccc(NC(=O)C3CCOCC3)c2)c2cc(-c3cn4nc(OC)sc4n3)oc2c1 [Example 165] — within 1.5-fold, 4.6 nM
- COc1cc(OCc2cccc(NC(=O)c3ccc([N+](=O)[O-])cc3)c2)c2cc(-c3cn4nc(OC)sc4n3)oc2c1 [Example 33] — 1.9-fold lower, 1.8 nM
- COc1cc(OCc2cccc(NC(=O)c3cccc(Br)c3)c2)c2cc(-c3cn4nc(OC)sc4n3)oc2c1 [Example 10] — 1.8-fold lower, 1.9 nM
- COc1cc(OCc2cccc(N(C)C(=O)c3ccc(OC)nc3)c2)c2cc(-c3cn4nc(OC)sc4n3)oc2c1 [Example 90] — 3.2-fold lower, 1.1 nM
- COc1cc(OCc2cccc3c2CCN3C(=O)c2csc(-c3ccccc3)n2)c2cc(-c3cn4nc(OC)sc4n3)oc2c1 [Example 119] — 490-fold higher, 1700 nM
- COc1cc(OCc2cccc3c2CCN3C(=O)c2ccccc2F)c2cc(-c3cn4nc(OC)sc4n3)oc2c1 [Example 120] — within 1.5-fold, 4.2 nM
- COc1cc(OCc2cccc(NC(=O)c3ccc(F)cc3F)c2)c2cc(-c3cn4nc(OC)sc4n3)oc2c1 [Example 152] — 2.7-fold lower, 1.3 nM
- COc1cc(OCc2cccc(NC(=O)c3ccc(C)nc3O)c2)c2cc(-c3cn4nc(OC)sc4n3)oc2c1 [Example 73] — within 1.5-fold, 3.6 nM
- COc1cc(OCc2cccc(NC(=O)COc3ccccc3)c2)c2cc(-c3cn4nc(OC)sc4n3)oc2c1 [Example 35] — 3.5-fold lower, 1 nM
- COc1cc(OCc2cccc(NC(=O)c3ccccc3OC)c2)c2cc(-c3cn4nc(OC)sc4n3)oc2c1 [Example 29] — 3.2-fold lower, 1.1 nM
- COc1cc(OCc2cccc(NC(=O)c3ccc(C#N)cc3)c2)c2cc(-c3cn4nc(OC)sc4n3)oc2c1 [Example 36] — within 1.5-fold, 2.5 nM
- COc1cc(OCc2cccc(NC(=O)c3cnccn3)c2)c2cc(-c3cn4nc(OC)sc4n3)oc2c1 [Example 133] — within 1.5-fold, 2.7 nM
- COc1cc(OCc2cccc(NC(=O)c3c(F)cc(F)cc3F)c2)c2cc(-c3cn4nc(OC)sc4n3)oc2c1 [Example 21] — 2.3-fold lower, 1.5 nM
- COc1cc(OCc2cccc(NC(=O)c3ccc(C(C)(C)C)cc3)c2)c2cc(-c3cn4nc(OC)sc4n3)oc2c1 [Example 37] — within 1.5-fold, 2.5 nM
- COc1cc(OCc2cccc(NC(=O)c3cccc(Cl)c3F)c2)c2cc(-c3cn4nc(OC)sc4n3)oc2c1 [Example 151] — within 1.5-fold, 3.4 nM
- COc1cc(OCc2cccc(NC(=O)c3ccccc3I)c2)c2cc(-c3cn4nc(OC)sc4n3)oc2c1 [Example 24] — 2.5-fold lower, 1.4 nM
- COc1cc(OCc2cccc(NC(=O)c3ccc4ccccc4c3)c2)c2cc(-c3cn4nc(OC)sc4n3)oc2c1 [Example 23] — 1.9-fold lower, 1.8 nM
- COc1cc(OCc2cccc(NC(=O)c3cccc(Cl)c3Cl)c2)c2cc(-c3cn4nc(OC)sc4n3)oc2c1 [Example 156] — 2.1-fold lower, 1.7 nM
- COc1cc(OCc2cccc3c2CCN3C(=O)c2ccccc2)c2cc(-c3cn4nc(OC)sc4n3)oc2c1 [Example 115, (4-(((6-Methoxy-2-(2-methoxyimidazo[2,1-b][1,3,4]thiadiazol-6-yl)benzofuran-4-yl)oxy)methyl)indolin-1-yl)(phenyl)methanone] — 27-fold higher, 96 nM
- COc1cccc(C(=O)Nc2cccc(COc3cc(OC)cc4oc(-c5cn6nc(OC)sc6n5)cc34)c2)c1 [Example 160] — 10-fold higher, 36 nM
- COc1cc(OCc2cccc(NC(=O)c3ccccc3OC(C)=O)c2)c2cc(-c3cn4nc(OC)sc4n3)oc2c1 [Example 8] — 2.2-fold lower, 1.6 nM
- COc1cc(OCc2cccc(NC(=O)c3ccccc3Cl)c2)c2cc(-c3cn4nc(OC)sc4n3)oc2c1 [Example 25] — 2.1-fold lower, 1.7 nM
- COc1cc(OCc2cccc3c2CCN3)c2cc(-c3cn4nc(OC)sc4n3)oc2c1 [Example 114, 6-(4-(Indolin-4-ylmethoxy)-6-methoxybenzofuran-2-yl)-2-methoxyimidazo[2,1-b][1,3,4]thiadiazole] — 11-fold higher, 37 nM
- COc1cc(OCc2cccc(NC(=O)c3cccnc3Cl)c2)c2cc(-c3cn4nc(OC)sc4n3)oc2c1 [Example 58] — 4.7-fold lower, 0.74 nM
- COc1cc(OCc2cccc3c2CCN3C(=O)c2ccccc2C)c2cc(-c3cn4nc(OC)sc4n3)oc2c1 [Example 122] — within 1.5-fold, 5 nM
- COc1cc(OCc2cccc3c2CCN3C(=O)c2ccccc2OC)c2cc(-c3cn4nc(OC)sc4n3)oc2c1 [Example 124] — 54-fold higher, 190 nM
- COc1ccc(C(=O)Nc2cccc(COc3cc(OC)cc4oc(-c5cn6nc(OC)sc6n5)cc34)c2)cc1 [Example 18] — 3.8-fold lower, 0.91 nM
- COc1cc(OCc2cccc(N(C)C=O)c2)c2cc(-c3cn4nc(OC)sc4n3)oc2c1 [Example 97] — within 1.5-fold, 2.5 nM
- COc1cc(OCc2cccc(NC(=O)c3ccc(OC(F)(F)F)cc3)c2)c2cc(-c3cn4nc(OC)sc4n3)oc2c1 [Example 41] — 2.5-fold lower, 1.4 nM
- COc1cc(OCc2cccc(NC(=O)c3cccc(-c4ccccc4)c3)c2)c2cc(-c3cn4nc(OC)sc4n3)oc2c1 [Example 158] — 3.4-fold higher, 12 nM
- COc1cc(OCc2cccc(NC(=O)C(C)C)c2)c2cc(-c3cn4nc(OC)sc4n3)oc2c1 [Example 136] — within 1.5-fold, 3.9 nM
- COc1cc(OCc2cccc(NC(=O)c3cccc(F)c3)c2)c2cc(-c3cn4nc(OC)sc4n3)oc2c1 [Example 28] — 1.8-fold lower, 2 nM
- COc1cc(OCc2ccc3c(c2)N(C(=O)c2ccccc2C)CC3)c2cc(-c3cn4nc(OC)sc4n3)oc2c1 [Example 101] — within 1.5-fold, 3.1 nM
- COc1cc(OCc2ccc3c(c2)N(C(=O)c2ccc(OC)nc2)CC3)c2cc(-c3cn4nc(OC)sc4n3)oc2c1 [Example 106] — 2.3-fold lower, 1.5 nM
- COc1cc(OCc2cccc(NC(=O)c3csc(-c4ccc(F)cc4)n3)c2)c2cc(-c3cn4nc(OC)sc4n3)oc2c1 [Example 77] — 34-fold higher, 120 nM
- COc1cc(OCc2cccc(N(C)C(=O)c3sc(C)nc3C)c2)c2cc(-c3cn4nc(OC)sc4n3)oc2c1 [Example 93] — within 1.5-fold, 4.8 nM
- COc1cc(OCc2cccc(NC(=O)c3ccnc(O)c3)c2)c2cc(-c3cn4nc(OC)sc4n3)oc2c1 [Example 56] — 1.6-fold higher, 5.5 nM
- COc1cc(OCc2cccc(NC(=O)c3cccc4ccccc34)c2)c2cc(-c3cn4nc(OC)sc4n3)oc2c1 [Example 15] — 2.1-fold lower, 1.7 nM
- COc1cc(OCc2cccc(NC(=O)c3ccccc3)c2)c2cc(-c3cn4nc(OC)sc4n3)oc2c1 [Example 1, N-(3-(((6-methoxy-2-(2-methoxyimidazo[2,1-b][1,3,4]thiadiazol-6-yl)benzofuran-4-yl)oxy)methyl)phenyl)benzamide] — 3.2-fold lower, 1.1 nM
- COc1nn2cc(-c3cc4c(OCc5cccc(NC(=O)c6ccccc6)c5)cccc4o3)nc2s1 [Example 52] — 8.5-fold lower, 0.41 nM
- COc1cc(OCc2cccc(NC(=O)c3ccc4c(c3)OCO4)c2)c2cc(-c3cn4nc(OC)sc4n3)oc2c1 [Example 22] — 3.2-fold lower, 1.1 nM
- COc1cc(OCc2cccc(NC(=O)c3csc(-c4cccc(C(F)(F)F)c4)n3)c2)c2cc(-c3cn4nc(OC)sc4n3)oc2c1 [Example 80] — 27-fold higher, 94 nM
- COc1cc(OC(F)F)cc(C(=O)Nc2cccc(COc3cc(OC)cc4oc(-c5cn6nc(OC)sc6n5)cc34)c2)c1 [Example 78] — 1.5-fold lower, 2.3 nM
- CCCc1ccc(C(=O)Nc2cccc(COc3cc(OC)cc4oc(-c5cn6nc(OC)sc6n5)cc34)c2)cc1 [Example 31] — 2.7-fold lower, 1.3 nM
- COc1cc(OCc2cccc(NC(=O)c3ccc(I)cc3)c2)c2cc(-c3cn4nc(OC)sc4n3)oc2c1 [Example 39] — within 1.5-fold, 2.4 nM
